Measured values as given in patent US20090270435A1 (priority 2006, published 2009).
Where a name gives a salt, the structure may show the parent alone.

Columns and labels:
[1] = biological target: T1, ACC1 from rat liver (Rattus norvegicus, UniProt P11497); experiment: Direct inhibition of ACC1 activity (14C-bicarbonate incorporation); type: biochemical
T1 construct: The livers (for ACC1 preparation) or skeletal muscle tissue (for ACC2 preparation) are removed; from tissue; host or cells: liver of male CD rats (fasted, then fed a high sucrose diet)
Method in brief: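 ACC1 partially purified from livers of fasted/sucrose-refed male rats by PEG and ammonium sulfate fractionation, then preincubated 30 min at 37°C with 10 mM citrate and 1.0 mM MgCl2. Reaction ran 7 min at 37°C, stopped with HCl; acid-stable radioactivity counted by scintillation; HCl-first tubes served as blanks.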

[2] = biological target: T2, ACC2 from rat skeletal muscle (Rattus norvegicus, UniProt Q1HEC0); experiment: Direct inhibition of ACC2 activity (14C-bicarbonate incorporation); type: biochemical
T2 construct: The livers (for ACC1 preparation) or skeletal muscle tissue (for ACC2 preparation) are removed; from tissue; host or cells: skeletal muscle of male CD rats (fasted, then fed a high sucrose diet)
T2 sequence (Q1HEC0 17-2455): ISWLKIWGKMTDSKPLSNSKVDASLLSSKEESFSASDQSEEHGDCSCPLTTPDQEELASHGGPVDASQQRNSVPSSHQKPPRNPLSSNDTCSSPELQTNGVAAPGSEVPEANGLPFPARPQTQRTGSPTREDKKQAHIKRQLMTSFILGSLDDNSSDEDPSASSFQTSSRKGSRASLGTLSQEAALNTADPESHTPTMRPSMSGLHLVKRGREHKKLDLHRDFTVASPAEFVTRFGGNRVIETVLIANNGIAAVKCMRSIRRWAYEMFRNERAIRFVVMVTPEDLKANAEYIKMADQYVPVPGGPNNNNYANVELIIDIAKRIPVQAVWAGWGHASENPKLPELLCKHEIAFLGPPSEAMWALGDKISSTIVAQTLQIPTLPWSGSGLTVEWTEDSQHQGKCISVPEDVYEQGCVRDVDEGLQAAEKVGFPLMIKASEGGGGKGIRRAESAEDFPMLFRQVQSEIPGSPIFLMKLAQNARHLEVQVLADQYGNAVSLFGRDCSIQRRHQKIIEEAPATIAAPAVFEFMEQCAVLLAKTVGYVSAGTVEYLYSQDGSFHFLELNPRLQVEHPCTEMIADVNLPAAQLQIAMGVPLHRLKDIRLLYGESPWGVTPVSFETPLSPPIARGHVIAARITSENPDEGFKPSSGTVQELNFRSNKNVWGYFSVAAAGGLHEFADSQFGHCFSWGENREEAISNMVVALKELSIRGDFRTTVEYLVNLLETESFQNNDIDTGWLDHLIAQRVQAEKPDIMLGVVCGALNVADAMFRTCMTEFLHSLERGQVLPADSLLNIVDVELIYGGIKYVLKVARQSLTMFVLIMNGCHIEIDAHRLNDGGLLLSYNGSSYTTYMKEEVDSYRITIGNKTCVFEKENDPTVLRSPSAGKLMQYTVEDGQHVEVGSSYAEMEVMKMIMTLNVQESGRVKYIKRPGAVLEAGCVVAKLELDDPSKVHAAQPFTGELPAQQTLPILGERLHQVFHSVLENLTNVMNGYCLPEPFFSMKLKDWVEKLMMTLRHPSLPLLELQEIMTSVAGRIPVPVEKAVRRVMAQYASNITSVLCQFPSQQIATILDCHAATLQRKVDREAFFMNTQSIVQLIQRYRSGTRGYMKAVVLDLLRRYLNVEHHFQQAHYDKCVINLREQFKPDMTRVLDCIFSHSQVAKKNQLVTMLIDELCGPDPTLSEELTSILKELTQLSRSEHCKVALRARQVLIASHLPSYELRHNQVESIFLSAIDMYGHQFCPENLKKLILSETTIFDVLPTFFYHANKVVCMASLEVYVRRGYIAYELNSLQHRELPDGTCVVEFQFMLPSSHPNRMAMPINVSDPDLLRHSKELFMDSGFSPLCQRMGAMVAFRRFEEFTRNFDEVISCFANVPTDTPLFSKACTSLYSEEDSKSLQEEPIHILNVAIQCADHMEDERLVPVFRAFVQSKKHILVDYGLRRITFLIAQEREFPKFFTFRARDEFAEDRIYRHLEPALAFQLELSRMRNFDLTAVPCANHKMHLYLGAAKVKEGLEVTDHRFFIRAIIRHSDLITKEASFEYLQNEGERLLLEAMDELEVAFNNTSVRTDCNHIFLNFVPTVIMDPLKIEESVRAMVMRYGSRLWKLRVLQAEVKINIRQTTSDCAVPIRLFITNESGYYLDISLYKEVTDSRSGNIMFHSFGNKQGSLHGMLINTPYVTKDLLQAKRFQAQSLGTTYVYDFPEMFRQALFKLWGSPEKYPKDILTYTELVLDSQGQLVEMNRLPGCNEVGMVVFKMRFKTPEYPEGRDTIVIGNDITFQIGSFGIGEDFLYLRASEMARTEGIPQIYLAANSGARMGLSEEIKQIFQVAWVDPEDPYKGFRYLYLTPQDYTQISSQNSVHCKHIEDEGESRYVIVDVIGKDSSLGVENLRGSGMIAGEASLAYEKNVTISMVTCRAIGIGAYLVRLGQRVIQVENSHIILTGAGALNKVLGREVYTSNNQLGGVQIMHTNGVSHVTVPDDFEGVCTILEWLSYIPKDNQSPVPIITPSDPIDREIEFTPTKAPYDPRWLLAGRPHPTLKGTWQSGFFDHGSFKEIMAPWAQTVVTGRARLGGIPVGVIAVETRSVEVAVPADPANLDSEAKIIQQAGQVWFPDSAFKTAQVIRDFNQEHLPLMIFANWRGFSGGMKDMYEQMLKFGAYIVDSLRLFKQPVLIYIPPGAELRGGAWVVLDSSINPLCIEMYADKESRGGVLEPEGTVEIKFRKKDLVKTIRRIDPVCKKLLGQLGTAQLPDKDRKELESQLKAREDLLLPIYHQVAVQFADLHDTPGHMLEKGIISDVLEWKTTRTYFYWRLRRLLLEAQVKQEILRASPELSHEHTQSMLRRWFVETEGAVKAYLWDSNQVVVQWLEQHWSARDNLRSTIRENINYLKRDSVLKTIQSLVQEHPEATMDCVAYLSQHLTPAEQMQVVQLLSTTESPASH
Procedure: For example direct inhibition of ACC1 and ACC2 activity, for compounds of Formula (1) were determined using preparations of ACC1 from rat liver and ACC2 from rat skeletal muscle.
[1] Preparation of ACC1 and ACC2. ACC1 was obtained from rat liver and ACC2 was obtained from rat skeletal muscle based upon standard procedures such as those described by Thampy and Wakil (J. Biol. Chem. 260: 6318-6323; 1985) using the following method.
Male CD rats weighing 150-200 g are fasted for 2 days and then fed a high sucrose diet (AIN-76A rodent diet; Cat # D10001, Research Diets Inc., New Brunswick, N.J.), for 3 days at which time they are sacrificed by CO2 asphyxiation. The livers (for ACC1 preparation) or skeletal muscle tissue (for ACC2 preparation) are removed, rinsed in ice-cold phosphate-buffered saline (PBS), and homogenized in 5 volumes of homogenization buffer (50 mM potassium phosphate, pH 7.5, 10 mM EDTA, 10 mM 2-mercaptoethanol, 2 mM benzamidine, 0.2 mM phenylmethylsulfonylfluoride (PMSF), 5 mg/L each leupeptin, aprotinin, and antitrypsin) in a Waring® blender for 1 minute at 4° C. All subsequent operations are carried out at 4° C. The homogenate is made 3% with respect to polyethylene glycol (PEG) by the addition of 50% PEG solution and centrifuged at 20,000×g for 15 minutes. The resulting supernatant is adjusted to 5% PEG with the addition of 50% PEG solution and stirred for 5 minutes. The pellet (contains ACC activity) is collected by centrifugation at 20,000×g for 20 minutes, rinsed with Ice-cold doubly distilled water to remove excess PEG and re-suspended in one-fourth the original homogenate volume with homogenization buffer. Ammonium sulfate (200 g/liter) is slowly added with stirring. After 45 minutes the enzyme is collected by centrifugation for 30 minutes at 20,000×g, re-suspended in 10 ml of 50 mM HEPES, pH7.5, 0.1 mM DTT, 1.0 mM EDTA, and 10% glycerol and desalted on a Sephadex™ G-25 column (2.5 cm-x 50 cm) (Pharmacia, Piscataway N.J. now GE Healthcare) […] equilibrated with the same buffer. The desalted enzyme preparation is stored in aliquots at −70° C. Immediately prior to use, frozen ACC1 or ACC2 aliquots are thawed, diluted to 500 μg/ml in buffer containing 50 mM HEPES, pH7.5, 1.0 mM MgCl2, 10 mM tripotassium citrate, 2.0 mM dithiothreitol (DTT), and 0.75 mg/ml fatty acid-free bovine serum albumin (BSA) and pre-incubated at 37° C. for 30 minutes.
[2] Measurement of ACC inhibition. The procedures for measuring ACC1 inhibition and ACC2 inhibition are identical except for the source of the isozyme. For measurement of ACC activity and assessment of ACC inhibition, test compounds are dissolved in dimethylsulfoxide (DMSO) and 1 μL aliquots are placed in 0.5 ml polypropylene tubes. Control tubes contain 1 μL of DMSO alone. Tubes are incubated at 37° C. in a constant temperature water bath. […] The reaction is then initiated by the addition of 10 μL of preincubated ACC fraction prepared as described above. After 7 minutes the reaction is terminated by the addition of 50 μL of 6N HCl and a 150 μL aliquot of the reaction mixture is transferred to glass scintillation vials and evaporated to dryness at 90° C. for at least 1 hour. The dried vials are then cooled, 0.5 ml of water and 5.5 ml of Ready Safe liquid scintillation fluid (Beckman Coulter Inc., Fullerton, Calif.) are added, and the radioactivity is determined using a liquid scintillation counter. Tubes that received HCl before ACC served as blanks.
[3] Specificity for ACC1 vs ACC2 inhibition. The specificity of a compound for Inhibiting ACC1 vs ACC2 can be determined by comparing the concentration of test compound required to inhibit 50% of the activity contained in an aliquot of ACC1 as compared with the concentration of the same compound required to inhibit 50% of the activity of an aliquot of ACC2.

[3] = tested on: hepatic fatty acid synthesis; experiment: Measurement of fatty acid synthesis inhibition in experimental animals ([2-14C]acetate into saponifiable lipids in liver); type: in vivo, Sprague Dawley rats; conditions: Rattus norvegicus, po; read-out: Percent Inhibition at 30 mg/kg
Text: The ACC inhibitory activity of compounds of this invention, and the salts of such compounds, can be confirmed in vivo by evaluation of their ability to inhibit hepatic fatty acid production and to stimulate whole body fatty acid oxidation using methods based on standard procedures. For example, since ACC catalyzes the first committed step in the biosynthesis of fatty acids, the in vivo activity of these compounds can be confirmed by measuring the ability of the compounds of this invention, and the salts of such compounds, to prevent the formation of radio labeled fatty acids from radio labeled acetate in the livers of treated mammals.
[1] Measurement of fatty acid synthesis inhibition in experimental animals. Incorporation of [2-^14C]acetate into saponifyable lipids in the livers of mammals (e.g. CDI mice, C57BI/6J-ob/ob mice, Sprague Dawley rats (available from Charles River Boston, Mass. or Jackson Labs Bar Harbor, Me.)) can be measured essentially as previously described for assessment of hepatic sterol synthesis (Harwood et al, Biochem. Pharmacol, 40: 1281-1293, 1990; Harwood et al. Biochem. Pharmacol. 53: 839-864, 1997) with the following modifications to allow for assessment fatty acid synthesis. For example, Sprague Dawley rats are administered a 0.1 ml per 40 g body weight of an oral bolus of vehicle (e.g. water or 0.5% methylcellulose in water)±test compound. One to four hours after compound administration, animals receive an intraperitoneal injection of 0.5 ml of [2-^14C]acetate (64 μCi/ml; 57 mCi/mmol). One hour after radiolabel administration, animals are sacrificed by CO2 asphyxiation and two, 0.75 g liver pieces are removed and saponified at […]. for 120 minutes in 1.5 ml of 2.5 M NaOH. After saponification, 2.5 ml of absolute EtOH are added to each sample and the solutions are mixed and allowed to stand overnight. Petroleum ether, 4.8 ml, is then added to each sample and the mixtures are first shaken vigorously for 2 minutes then centrifuged at 1000×g in a bench-top Sorvall®9 for 5 minutes. The resultant petroleum ether layers, which contain the nonsaponifyable lipids (e.g. cholesterol, post-squalene cholesterol precursors and other non-saponifiable lipids), are removed and discarded. The remaining aqueous layer (containing fatty acid sodium salts) is acidified to pH<2 by addition of 0.6 ml of 12 M HCl and extracted two times with 4.8 ml of petroleum ether. The pooled organic fractions (containing protonated fatty acids) are transferred to liquid scintillation vials, dried under nitrogen, dissolved in 7 ml of Aqua sol liquid scintillation fluid, and assessed for radioactivity using a liquid scintillation counter. Inhibition of fatty acid synthesis by the test compound is expressed as the concentration required to reduce by 50% the dpm [2-^14C]acetate incorporated into saponifiable lipids during the 1 hour interval between radio labeled acetate injection and CO2 asphyxiation.
Some compounds of the present were evaluated for inhibition of fatty acid synthesis as described above. As shown below, these compounds were all observed to inhibit the synthesis of fatty acids in vivo.

SMILES | IC50 ([1]; ACC1 from rat liver) [nM] | IC50 ([2]; ACC2 from rat skeletal muscle) [nM] | IC50 ([1]; Table of Examples M1-M36) [nM] | IC50 ([2]; Table of Examples M1-M36) [nM] | inhibition at 30 mg/kg [3] [%]
COc1ccc2c(c1)C(=O)CC1(CCN(C(=O)c3cc(C)c4[nH]ncc4c3)CC1)O2 [Ex. A7, 6-methoxy-1′-[(7-methyl-1H-indazol-5-yl)carbonyl]spiro[chromene-2,4′-piperidin]-4(3H)-one trifluoroacetic acid salt] | 32.5 | 138 |  |  | 
CCOc1ccc2c(c1)C(=O)CC1(CCN(C(=O)c3cccc(-c4cc[nH]n4)c3)CC1)O2 [Ex. N2, 6-ethoxy-1′-[3-(1H-pyrazol-3-yl)benzoyl]spiro[chromene-2,4′-piperidin]-4(3H)-one] | 43.2 | 91.7 |  |  | 
CCOc1ccc2c(c1)C(=O)CC1(CCN(C(=O)c3cc(C)c4[nH]ncc4c3)CC1)O2 [Ex. A4, 6-ethoxy-1′-[(7-methyl-1H-indazol-5-yl)carbonyl]spiro[chromene-2,4′-piperidin]-4(3H)-one] | 19.5 | 29.9 |  |  | 
Cc1cc2c(cc1Cl)C(=O)CC1(CCN(C(=O)c3cccc(-c4cc[nH]n4)c3)CC1)O2 [Ex. M3, 6-chloro-7-methyl-1′-[3-(1H-pyrazol-3-yl)benzoyl]spiro[chromene-2,4′-piperidin]-4(3H)-one] |  |  | 105 | 434 | 
COc1ccc2c(c1)C(=O)CC1(CCN(C(=O)c3cc(Cl)c4[nH]ncc4c3)CC1)O2 [Ex. B5, 1′-[(7-chloro-1H-indazol-5-yl)carbonyl]-6-methoxyspiro[chromene-2,4′-piperidin]-4(3H)-one] | 81 | 231 |  |  | 
CC(C)Oc1ccc2c(c1)C(=O)CC1(CCN(C(=O)c3cc(Cl)c4[nH]ncc4c3)CC1)O2 [Ex. B2, 1′-[(7-chloro-1H-indazol-5-yl)carbonyl]-6-isopropoxyspiro[chromene-2,4′-piperidin]-4(3H)-one] | 16.1 | 31.1 |  |  | 
Cc1cc2c(cc1Cl)C(=O)CC1(CCN(C(=O)c3cc(Cl)c4[nH]ncc4c3)CC1)O2 [Ex. B4, 6-chloro-7-methyl-1′-[(7-chloro-1H-indazol-5-yl)carbonyl]spiro[chromene-2,4′-piperidin]-4(3H)-one] | 56.8 | 127 |  |  | 

Now from value to molecule, other results behind:

IC50 ([1]; ACC1 from rat liver) [nM] | IC50 ([2]; ACC2 from rat skeletal muscle) [nM] | IC50 ([1]; Table of Examples M1-M36) [nM] | IC50 ([2]; Table of Examples M1-M36) [nM] | SMILES | inhibition at 30 mg/kg [3] [%]
14.5 | 17.2 |  |  | Cc1cc(C(=O)N2CCC3(CC2)CC(=O)c2cc(OC(C)C)ccc2O3)cc2cn[nH]c12 [Ex. A3, 6-isopropoxy-1′-[(7-methyl-1H-indazol-5-yl)carbonyl]spiro[chromene-2,4′-piperidin]-4(3H)-one] | 
108 |  |  |  | Cc1cc2c(cc1Cl)C(=O)CC1(CCN(C(=O)c3ccc4[nH]ncc4c3)CC1)O2 [Ex. E2, 6-chloro-1′-(1H-indazol-5-ylcarbonyl)-7-methylspiro[chromene-2,4′-piperidin]-4(3H)-one] | 30.7
96.5 |  |  |  | Cc1cc2c(cc1C)C(=O)CC1(CCN(C(=O)c3ccc4[nH]ncc4c3)CC1)O2 [Ex. E1, 1′-(1H-indazol-5-ylcarbonyl)-6,7-dimethylspiro[chromene-2,4′-piperidin]-4(3H)-one] | 30.9
41.9 |  |  |  | Cc1cc(C(=O)N2CCC3(CC2)CC(=O)c2cc(OC(F)(F)F)ccc2O3)cc2cn[nH]c12 [Ex. A12, 1′-[(7-methyl-1H-indazol-5-yl)carbonyl]-6-(trifluoromethoxy)spiro[chromene-2,4-piperidin]-4(3H)-one] | 38.7
45 |  |  |  | Cc1cc2c(cc1Cl)C(=O)CC1(CCN(C(=O)c3cc(C)c4[nH]ncc4c3)CC1)O2 [Ex. A13, 6-chloro-7-methyl-1′-[(7-methyl-1H-indazol-5-yl)carbonyl]spiro[chromene-2,4′-piperidin]-4(3H)-one] | 64
 |  | 816 | 1860 | N#Cc1ccc2c(c1)C(=O)CC1(CCN(C(=O)c3cccc(-c4cc[nH]n4)c3)CC1)O2 [Ex. M33, 4-oxo-1′-[3-(1H-pyrazol-3-yl)benzoyl]3,4-dihydrospiro[chromene-2,4′-piperidine]-6-carbonitrile] | 
37.4 |  |  |  | COc1ccc2c(c1F)C(=O)CC1(CCN(C(=O)c3cc(C)c4[nH]ncc4c3)CC1)O2 [Ex. A9, 5-fluoro-6-methoxy-1′-[(7-methyl-1H-indazol-5-yl)carbonyl]spiro[chromene-2,4′-piperidin]-4(3H)-one] | 33.5
48.3 | 54.8 |  |  | CC(C)Oc1ccc2c(c1)C(=O)CC1(CCN(C(=O)c3cccc(-c4cc[nH]n4)c3)CC1)O2 [Ex. N3, 6-isopropoxy-1′-[3-(1H-pyrazol-3-yl)benzoyl]spiro[chromene-2,4′-piperidin]-4(3H)-one] | 
21.4 | 34.3 |  |  | CCOc1ccc2c(c1)C(=O)CC1(CCN(C(=O)c3cc(Cl)c4[nH]ncc4c3)CC1)O2 [Ex. B3, 1′-[(7-chloro-1H-indazol-5-yl)carbonyl]-6-ethoxyspiro[chromene-2,4′-piperidin]-4(3H)-one] | 
